Where two headings read alike, the source gives them in different places.
Experiments:
A549/ATCC = test: NCI-60 drug screen (SRB), NSCLC line A549/ATCC; format: cell-based, human; conditions: for LC50 (concentration killing 50% of cells) / GI50: Homo sapiens
Description: (§1) As a primary screening, seven selected compounds were submitted to the National Cancer Institute (NCI) cell lines screen for evaluation of their anticancer activity. From the data analysis, it follows that approximately 95% of the actives from the 60 cell lines screen can be identified. The detailed methods used for the 60 cell lines panel have been described elsewhere [54]–[59]. Briefly, cellular protein levels were determined after 48 hours of drug exposure by SRB colorimetry. Through the use of a time zero cell control, the cell growth can be determined for each cell line thus allowing calculations of GI50, TGI, and LC50. Comparison to plates not exposed to drug permits determination of concentration and times of exposure conferring GI50, TGI, and LC50. […] By these criteria, seven compounds reported from our compounds bank were all active and passed on for evaluation in the full panel of 60 human tumor cell lines. The panel is organized into nine subpanels representing diverse histology: leukemia, melanoma, and cancers of the lung, colon, kidney, ovary, breast, prostate, and central nervous system.

EKVX = test: NCI-60 drug screen (SRB), NSCLC line EKVX; format: cell-based, human; conditions: for LC50 / GI50: Homo sapiens
Description: as §1

HOP-92 = test: NCI-60 drug screen (SRB), NSCLC line HOP-92; format: cell-based, human; conditions: for GI50 / CC50: Homo sapiens; for CC50: read-out: LC50 (the source's name)
Description: as §1

NCI-H226 = test: NCI-60 drug screen (SRB), NSCLC line NCI-H226; format: cell-based, human; conditions: for GI50 / CC50: Homo sapiens; for CC50: read-out: LC50 (the source's name)
Description: as §1

NCI-H322M = test: NCI-60 drug screen (SRB), NSCLC line NCI-H322M; format: cell-based, human; conditions: for LC50 / GI50: Homo sapiens
Description: as §1

NCI-H460 = test: NCI-60 drug screen (SRB), NSCLC line NCI-H460; format: cell-based, human; conditions: for LC50 (concentration killing 50% of cells) / GI50: Homo sapiens
Description: as §1

NCI-H522 = test: NCI-60 drug screen (SRB), NSCLC line NCI-H522; format: cell-based, human; conditions: for GI50 / CC50: Homo sapiens; for CC50: read-out: LC50 (the source's name)
Description: as §1

A549 cells = test: MTT cytotoxicity assay, A549 cells; format: cell-based; conditions: Homo sapiens, 48 h of drug exposure
Description: Non-small cell lung cancer cells A549 and Oct-4- and Nanog-overexpressed A549 clone (clone #3; A3), presented the properties of cancer stem-like cells, as well as epithelial-mesenchymal transdifferentiation, according to our previous study. They were grown in the same conditions as RPMI 1640 media supplemented with 10% fetal bovine serum (FBS), 100 units/mL penicillin, […] streptomycin, 1 mM sodium pyruvate, 2 mM l-glutamine and 1% non-essential amino acid (NEAA) in a humidified atmosphere with 5% CO2 at 37°C. Normal fibroblast cells HEL299 from American Type Culture Collection (ATCC) were grown in MEM media supplemented with 10% FBS, 100 units/mL penicillin, […] streptomycin, 1 mM sodium pyruvate, 2 mM l-glutamine and 1% NEAA, in a humidified atmosphere with 5% CO2 at 37°C.
The tetrazolium reagent (MTT; 3-(4,5-dimethylthiazol-2-yl)-2,5-diphenyl-tetrazolium bromide, USB) was designed to yield a colored formazan upon metabolic reduction by viable cells, [61]. Approximately 5×10^4 cells were plated onto each well of a 24-well plate and incubated in 5% CO2 at 37°C for 24 hours. To assess the in vitro cytotoxicity, each compound was dissolved in DMSO and prepared immediately before the experiments and then was diluted into the complete medium before being added to cell cultures. Test compounds were then added to the culture medium in various designated concentrations. After 48 hours, an amount of 100 µl of MTT was added to each well, and the samples were incubated at 37°C for 2 h. 100 µl DMSO was added to each well. The absorbency at 560 nm and reference absorbency at 670 nm were measured using an ELISA reader.

NCI-60 cancer cell lines = test: NCI-60 panel of human tumor cell lines, median GI50; format: cell-based; conditions: median over NCI-60 cancer cell lines, read-out: median 50% growth inhibitory concentration (GI50)
Description: as §1

A3 clone = test: Sphere formation and cell viability assay in A3 clone; format: cell-based, human; conditions: treated A3 clone; for sphere formation: serum free medium with bFGF and EGF (10 ng/ml)
[1] = test system: PARP-1 mRNA expression in A3 cells; test: Quantitative RT-PCR of PARP-1 in treated A3 cells; format: cell-based, human
From the text: RNA was isolated from cells with the TRIzol (Invitrogen) reagent […], and this was followed by RNA clean up with the RNeasy Minikit (QIAGEN). cDNA was produced with the First Strand cDNA Synthesis Kit (Roche). Real-time quantitative PCR reactions were set up in triplicate with the Brilliant II SYBR Green QPCR Master Mix (Stratagene) and run on an Mx3000P QPCR System (Stratagene).

[2] = 48 hours drug exposure, SRB, read-out: GI50
[3] = NCI in vitro 60-cell lines Drug Screen, read-out: -Log GI50 (converted)

`CN(C)CC(=O)Nc1ccc2c(c1)C(=O)c1cc(NC(=O)CN(C)C)ccc1C2=O` [NSC746364] gave a TGI (A549/ATCC; 48 hours drug exposure, SRB) of 4.43 µM, an LC50 (concentration killing 50% of cells) (A549/ATCC; 48 hours drug exposure, SRB) greater than 100 µM and a GI50 (A549/ATCC; [2]) of 1.45 µM. The GI50 (A549/ATCC; [3]) was 1.45 µM, the TGI (EKVX; 48 hours drug exposure, SRB) was 31.4 µM and the LC50 (EKVX; 48 hours drug exposure, SRB) was 77.4 µM. For the same compound, the GI50 (EKVX; [2]) was 12.8 µM, the GI50 (EKVX; [3]) was 12.9 µM and the TGI (HOP-92; 48 hours drug exposure, SRB) was 31.7 µM. The GI50 (HOP-92; [2]) was 10.4 µM, the CC50 (HOP-92; 48 hours drug exposure, SRB) was 96.6 µM and the GI50 (HOP-92; [3]) was 10.5 µM. For the same compound, the TGI (NCI-H226; 48 hours drug exposure, SRB) was 32.4 µM, the GI50 (NCI-H226; [2]) was 15.5 µM and the CC50 (NCI-H226; 48 hours drug exposure, SRB) was 67.4 µM. The GI50 (NCI-H226; [3]) was 15.5 µM, the TGI (NCI-H322M; 48 hours drug exposure, SRB) was 4.91 µM and the LC50 (NCI-H322M; 48 hours drug exposure, SRB) was 83.1 µM. The GI50 (NCI-H322M; [2]) was 1.86 µM, the GI50 (NCI-H322M; [3]) was 1.86 µM and the TGI (NCI-H460; 48 hours drug exposure, SRB) was 3.35 µM. It also gave an LC50 (concentration killing 50% of cells) (NCI-H460; 48 hours drug exposure, SRB) of 8.2 µM, a GI50 (NCI-H460; [2]) of 1.37 µM and a GI50 (NCI-H460; [3]) of 1.38 µM. For the same compound, the TGI (NCI-H522; 48 hours drug exposure, SRB) was 13.1 µM, the GI50 (NCI-H522; [2]) was 1.27 µM and the CC50 (NCI-H522; 48 hours drug exposure, SRB) was 66.4 µM. The GI50 (NCI-H522; [3]) was 1.26 µM and the IC50 (A549 cells) was 4.49 µM.
Work on `CN(C)CCCSc1nc2ccc3c(c2[nH]1)C(=O)c1ccccc1C3=O` [NSC747854] yielded a TGI (A549/ATCC; 48 hours drug exposure, SRB) of 12.6 µM, a GI50 (A549/ATCC; [2]) of 3.26 µM and a GI50 (A549/ATCC; [3]) of 3.24 µM. The TGI (EKVX; 48 hours drug exposure, SRB) was 20.1 µM, the GI50 (EKVX; [2]) was 4.2 µM and the GI50 (EKVX; [3]) was 4.17 µM. The TGI (NCI-H226; 48 hours drug exposure, SRB) was 22.1 µM, the GI50 (NCI-H226; [2]) was 3.74 µM and the CC50 (NCI-H226; 48 hours drug exposure, SRB) was 58.7 µM. The GI50 (NCI-H226; [3]) was 3.72 µM, the TGI (NCI-H322M; 48 hours drug exposure, SRB) was 20.6 µM and the GI50 (NCI-H322M; [2]) was 0.72 µM. For the same compound, the GI50 (NCI-H322M; [3]) was 0.724 µM, the TGI (NCI-H460; 48 hours drug exposure, SRB) was 12.8 µM and the GI50 (NCI-H460; [2]) was 2.13 µM. The GI50 (NCI-H460; [3]) was 2.14 µM, the TGI (NCI-H522; 48 hours drug exposure, SRB) was 24.9 µM and the GI50 (NCI-H522; [2]) was 1.22 µM. The CC50 (NCI-H522; 48 hours drug exposure, SRB) was 50 µM, the GI50 (NCI-H522; [3]) was 12.3 µM and the IC50 (A549 cells) was 12.2 µM. The GI50 (NCI-60 cancer cell lines) was 6.92 µM, the “cell growth / cell viability” value (A3 clone) was “inhibit the cell growth” and the sphere formation (A3 clone) was “effectively block the sphere formation”. The “expression levels of PARP-1 (mRNA)” value [1] was “inhibit the expression levels of PARP-1”.
`Cc1ccc(C(=O)Nc2c(NC(=O)CCl)ccc3c2C(=O)c2ccccc2C3=O)cc1` [NSC749232] was tested, and the TGI (A549/ATCC; 48 hours drug exposure, SRB) was 29.2 µM, the LC50 (concentration killing 50% of cells) (A549/ATCC; 48 hours drug exposure, SRB) was greater than 100 µM and the GI50 (A549/ATCC; [2]) was 12.3 µM. It also gave a GI50 (A549/ATCC; [3]) of 12.3 µM, a TGI (EKVX; 48 hours drug exposure, SRB) of 14.9 µM and an LC50 (EKVX; 48 hours drug exposure, SRB) greater than 100 µM. For the same compound, the GI50 (EKVX; [2]) was 1.98 µM, the GI50 (EKVX; [3]) was 2 µM and the TGI (HOP-92; 48 hours drug exposure, SRB) was 31.7 µM. For the same compound, the GI50 (HOP-92; [2]) was 9.73 µM, the CC50 (HOP-92; 48 hours drug exposure, SRB) was greater than 100 µM and the GI50 (HOP-92; [3]) was 9.77 µM. The TGI (NCI-H226; 48 hours drug exposure, SRB) was 20.8 µM, the GI50 (NCI-H226; [2]) was 8.81 µM and the CC50 (NCI-H226; 48 hours drug exposure, SRB) was 49.1 µM. It also gave a GI50 (NCI-H226; [3]) of 8.91 µM, a TGI (NCI-H322M; 48 hours drug exposure, SRB) of 13.7 µM and an LC50 (NCI-H322M; 48 hours drug exposure, SRB) of 45.4 µM. The GI50 (NCI-H322M; [2]) was 3.76 µM, the GI50 (NCI-H322M; [3]) was 3.8 µM and the TGI (NCI-H460; 48 hours drug exposure, SRB) was 14.1 µM. It also gave an LC50 (concentration killing 50% of cells) (NCI-H460; 48 hours drug exposure, SRB) of 34.1 µM, a GI50 (NCI-H460; [2]) of 5.81 µM and a GI50 (NCI-H460; [3]) of 5.75 µM. The TGI (NCI-H522; 48 hours drug exposure, SRB) was 2.03 µM, the GI50 (NCI-H522; [2]) was 8.95 µM and the GI50 (NCI-H522; [3]) was 0.891 µM. The IC50 (A549 cells) was 6.62 µM, the “cell growth / cell viability” value (A3 clone) was “inhibit the cell growth” and the sphere formation (A3 clone) was “effectively block the sphere formation”. The “expression levels of PARP-1 (mRNA)” value [1] was “inhibit the expression levels of PARP-1”.
